# Patent publication US9624214B2, “Amino-substituted imidazo[1,2-a]pyridinecarboxamides and their use” (BAYER PHARMA AKTIENGESELLSCHAFT, priority 2012, dated 2017)
# Structures can show the parent of a compound that is named as a salt.
# Target: T1, recombinant guanylate cyclase reporter cell line (Rattus norvegicus, UniProt P19686+P20595)
# T1 construct: expressed in transfected cells
# T1 sequence (P20595 1-619): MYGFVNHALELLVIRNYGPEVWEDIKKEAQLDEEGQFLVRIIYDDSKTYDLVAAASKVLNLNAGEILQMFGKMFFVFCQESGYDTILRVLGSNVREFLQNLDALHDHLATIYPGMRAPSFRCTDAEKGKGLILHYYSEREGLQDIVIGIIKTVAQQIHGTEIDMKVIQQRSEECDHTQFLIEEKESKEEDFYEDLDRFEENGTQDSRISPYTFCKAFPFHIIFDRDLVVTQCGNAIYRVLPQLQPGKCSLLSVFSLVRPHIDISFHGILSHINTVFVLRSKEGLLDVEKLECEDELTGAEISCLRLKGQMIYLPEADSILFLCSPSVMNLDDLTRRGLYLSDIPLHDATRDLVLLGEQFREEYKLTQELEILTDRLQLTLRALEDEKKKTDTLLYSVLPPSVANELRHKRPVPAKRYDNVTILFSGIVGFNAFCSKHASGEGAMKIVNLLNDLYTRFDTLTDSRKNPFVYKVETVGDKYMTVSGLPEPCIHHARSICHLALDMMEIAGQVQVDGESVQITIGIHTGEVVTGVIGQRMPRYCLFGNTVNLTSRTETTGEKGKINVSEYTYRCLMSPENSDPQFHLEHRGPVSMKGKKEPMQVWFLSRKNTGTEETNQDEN
# T1 sequence (P19686 1-690): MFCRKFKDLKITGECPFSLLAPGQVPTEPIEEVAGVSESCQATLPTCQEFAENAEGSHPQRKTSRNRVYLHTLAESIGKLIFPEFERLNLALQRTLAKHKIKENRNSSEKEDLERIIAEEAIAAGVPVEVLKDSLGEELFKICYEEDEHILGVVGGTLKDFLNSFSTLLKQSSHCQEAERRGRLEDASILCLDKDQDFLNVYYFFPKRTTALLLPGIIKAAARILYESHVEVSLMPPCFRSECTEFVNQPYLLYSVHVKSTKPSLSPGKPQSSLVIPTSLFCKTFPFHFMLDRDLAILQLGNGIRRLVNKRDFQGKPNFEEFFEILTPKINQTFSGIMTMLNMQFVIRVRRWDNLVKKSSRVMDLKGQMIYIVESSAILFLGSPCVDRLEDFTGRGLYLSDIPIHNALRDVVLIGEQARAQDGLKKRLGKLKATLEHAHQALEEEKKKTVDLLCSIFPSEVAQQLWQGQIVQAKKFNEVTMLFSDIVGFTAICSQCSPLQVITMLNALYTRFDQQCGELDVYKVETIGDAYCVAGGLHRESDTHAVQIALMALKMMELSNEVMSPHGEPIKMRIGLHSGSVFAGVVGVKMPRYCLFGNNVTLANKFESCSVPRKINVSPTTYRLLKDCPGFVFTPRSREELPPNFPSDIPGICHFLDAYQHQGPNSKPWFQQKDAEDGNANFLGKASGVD
# Assay: B-2. Action on recombinant guanylate cyclase reporter cell line
# Assay type: cell-based
# Conditions: MEC = minimal effective concentration; in some cases mean values from individual determinations
# In short: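 Cellular activity was measured in a reporter cell line expressing recombinant guanylate cyclase. Values are given as MEC, the minimal effective concentration, and some are means of individual determinations.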
row,MEC [µM],Structure (SMILES)
1,1.00,"Cc1nc2c(OCc3c(F)cccc3F)cccn2c1C(=O)NCC(C)N1CCOCC1 (single isomer, unassigned; ent-8) [Example 180, ent-8-[(2,6-Difluorobenzyl)oxy]-2-methyl-N-[2-(morpholin-4-yl)propyl]imidazo[1,2-a]pyridine-3-carboxamide]"
2,1.00,"Cc1cc(OCc2c(F)cccc2F)c2nc(C)c(C(=O)NC3CCCC(N)C3)n2c1 (stereo not shown) [Example 160, N-(3-aminocyclohexyl)-8-[(2,6-difluorobenzyl)oxy]-2,6-dimethylimidazo[1,2-a]-pyridine-3-carboxamide]"
3,1.00,"CCCC(C)(N)CNC(=O)c1c(C)nc2c(OCc3c(F)cccc3F)c(F)ccn12 (racemic) [Example 277, rac-N-(2-Amino-2-methylpentyl)-8-[(2,6-difluorobenzyl)oxy]-7-fluoro-2-methylimidazo[1,2-a]-pyridine-3-carboxamide]"
4,1.00,"Cc1nc2c(OCc3c(F)cccc3F)cc(Cl)cn2c1C(=O)NCC1(N)CCCC1 [Example 42, N-[(1-aminocyclopentyl)methyl]-6-chloro-8-[(2,6-difluorobenzyl)oxy]-2-methylimidazo[1,2-a]pyridine-3-carboxamide]"
5,3.00,"Cc1nc2c(OCc3c(F)cccc3F)cccn2c1C(=O)NCC(C(C)C)N(C)C (single isomer, unassigned; ent-8) [Example 189, ent-8-[(2,6-Difluorobenzyl)oxy]-N-[2-(dimethylamino)-3-methylbutyl]-2-methylimidazo[1,2-a]-pyridine-3-carboxamide]"
6,1.00,"Cc1nc2c(OCc3c(F)cccc3F)cccn2c1C(=O)NCCNC(C)C [Example 130, 8-[(2,6-difluorobenzyl)oxy]-N-[2-(isopropylamino)ethyl]-2-methylimidazo[1,2-a]-pyridine-3-carboxamide]"
7,0.10,"[2H]C([2H])(Oc1cccn2c(C(=O)NC(CN)c3ccc(F)c(F)c3)c(C)nc12)c1c(F)cccc1F (stereo not drawn) [Example 97, ent-N-[2-Amino-1-(3,4-difluorophenyl)ethyl]-8-{[(2,6-difluorophenyl) (^2H2)methyl]oxy}-2-methylimidazo[1,2-a]pyridine-3-carboxamide]"
8,3.00,"Cc1cc(OCc2c(F)cccc2F)c2nc(C)c(C(=O)NCC(N)c3csc4ccccc34)n2c1 (racemic) [Example 373, rac-N-[2-amino-2-(1-benzothiophen-3-yl)ethyl]-8-[(2,6-difluorobenzyl)oxy]-2,6-dimethylimidazo[1,2-a]pyridine-3-carboxamide]"
9,0.65,"Cc1nc2c(OCc3c(F)cccc3F)cccn2c1C(=O)NC(CN)CC(F)(F)F (racemic) [Example 2, rac-N-(1-Amino-4,4,4-trifluorobutan-2-yl)-8-[(2,6-difluorobenzyl)oxy]-2-methylimidazo[1,2-a]-pyridine-3-carboxamide]"
10,1.00,"CCOCC(CN)NC(=O)c1c(C)nc2c(OCc3c(F)cccc3F)cccn12 (single isomer, unassigned) [Example 56, ent-N-(1-amino-3-ethoxypropan-2-yl)-8-[(2,6-difluorobenzyl)oxy]-2-methylimidazo[1,2-a]-pyridine-3-carboxamide]"
11,1.00,"Cc1nc2c(OCc3c(F)cccc3F)cccn2c1C(=O)NCC(C)N (racemic) [Example 34, rac-N-(2-aminopropyl)-8-[(2,6-difluorobenzyl)-oxy]-2-methylimidazo[1,2-a]pyridine-3-carboxamide dihydrochloride]"
12,0.30,"Cc1cc(OCc2c(F)cccc2F)c2nc(C)c(C(=O)NC(C)(C)CN)n2c1 [Example 26, N-(1-amino-2-methylpropan-2-yl)-8-[(2,6-difluorobenzyl)oxy]-2,6-dimethylimidazo [1,2-a]-pyridine-3-carboxamide]"
13,0.30,"Cc1nc2c(OCc3c(F)cccc3F)cccn2c1C(=O)NCC(N)C(F)(F)F (single isomer, unassigned) [Example 209, ent-N-(2-Amino-3,3,3-trifluoropropyl)-8-[(2,6-difluorobenzyl)oxy]-2-methylimidazo[1,2-a]-pyridine-3-carboxamide]"
14,1.00,"Cc1cc(OCc2c(F)cccc2F)c2nc(C)c(C(=O)NC3CNCC3F)n2c1 (racemic) [Example 347, rac-8-[(2,6-Difluorobenzyl)oxy]-N-(4-fluoropyrrolidin-3-yl)-2,6-dimethylimidazo[1,2-a]pyridine-3-carboxamide]"
15,0.3,"CCCC(C)(N)CNC(=O)c1c(C)nc2c(OCc3c(F)cccc3F)cc(C(F)F)cn12 (single isomer, unassigned; enantiomer b) [Example 290, ent-N-(2-amino-2-methylpentyl)-8-[(2,6-difluorobenzyl)oxy]-6-(difluoromethyl)-2-methylimidazo[1,2-a]pyridine-3-carboxamide (Enantiomer B)]"
16,3.00,"COCC(N)CNC(=O)c1c(C)nc2c(OCc3c(F)cccc3F)cccn12 (single isomer, unassigned) [Example 247, ent-N-(2-Amino-3-methoxypropyl)-8-[(2,6-difluorobenzyl)oxy]-2-methylimidazo[1,2-a]pyridine-3-carboxamide]"
17,0.30,"COC(=O)[C@@H](N)CNC(=O)c1c(C)nc2c(OCc3c(F)cccc3F)cc(C)cn12 [Example 319, Methyl 3-[({8-[(2,6-difluorobenzyl)oxy]-2,6-dimethylimidazo[1,2-a]pyridin-3-yl}carbonyl)amino]-L-alaninate]"
18,0.10,"CC=CCC(N)CNC(=O)c1c(C)nc2c(OCc3c(F)cccc3F)cc(C)cn12 (racemic) [Example 406, rac-N-[(4E/Z)-2-aminohex-4-en-1-yl]-8-[(2,6-difluorobenzyl)oxy]-2,6-dimethylimidazo[1,2-a]pyridine-3-carboxamide]"
19,0.10,"Cc1nc2c(OCc3c(F)cccc3F)cccn2c1C(=O)NCC(C)(N)CCOCc1ccccc1 (single isomer, unassigned; enantiomer b) [Example 267, ent-N-[2-Amino-4-(benzyloxy)-2-methylbutyl]-8-[(2,6-difluorobenzyl)oxy]-2-methylimidazo[1,2-a]pyridine-3-carboxamide (Enantiomer B)]"
20,5.5,"Cc1cc(OCc2c(F)cccc2F)c2nc(C)c(C(=O)NCC(N)c3csc(C)n3)n2c1 (racemic) [Example 415, rac-N-[2-amino-2-(2-methyl-1,3-thiazol-4-yl)ethyl]-8-[(2,6-difluorobenzyl)oxy]-2,6-dimethylimidazo[1,2-a]pyridine-3-carboxamide Triformate]"

row,Structure (SMILES),MEC [µM]
1,"Cc1nc2c(OCc3c(F)cccc3F)cccn2c1C(=O)NC1CC2CCCC(C1)N2C1CC1 (stereo not shown) [Example 1, N-(9-Cyclopropyl-9-azabicyclo[3.3.1]non-3-yl)-8-[(2,6-difluorobenzyl)oxy]-2-methylimidazo[1,2-a]pyridine-3-carboxamide]",0.10
2,"CCN1C2CCCC1CC(NC(=O)c1c(C)nc3c(OCc4c(F)cccc4F)cccn13)C2 (stereo not shown) [Example 71, 8-[(2,6-Difluorobenzyl)oxy]-N-(9-ethyl-9-azabicyclo[3.3.1]non-3-yl)-2-methylimidazo[1,2-a]-pyridine-3-carboxamide]",0.30
